Measurements as given in patent US12679842B2, “HCK as a therapeutic target in MYD88 mutated diseases” (Dana-Farber Cancer Institute, Inc., priority 2019, dated 2026).

Experiments:
[1] = test system: BTK C481S expressing lentiviral vector transduced BCWM.1 WM cells; experiment: CellTiter-Glo cell viability assay in BTK WT or BTK C481S transduced BCWM.1 cells; type: cell-based; settings: MYD88 mutated WM cells (BCWM.1), 72 hrs, FIG. 4
[2] = test system: BTK C481S expressing lentiviral vector transduced TMD8 ABC-DLBCL cells; experiment: CellTiter-Glo cell viability assay in BTK WT or BTK C481S transduced TMD8 cells; type: cell-based; settings: MYD88 mutated ABC DLBCL cells (TMD8), 72 hrs, FIG. 4

## CN1CCN(C2CCC(n3nc(-c4ccc(Oc5ccccc5)cc4)c4c(N)nccc43)CC2)CC1 (centres unmarked) [Compound I-4]
[1]
  drug dose-response in BTK C481S expressing cells (ibrutinib resistance): overcomes BTKC481S mediated ibrutinib resistance
[2]
  drug dose-response in BTK C481S expressing cells (ibrutinib resistance): overcomes BTKC481S mediated ibrutinib resistance
